In brackets after ≈: the same amount, converted by molar mass.
How the values were obtained:
[1] = system: female Sprague-Dawley rats; test: anti-fertility activity in pregnant rats; assay type: in vivo, rat (Sprague-Dawley)
Protocol: Representative experiments for assessing anti-fertility activity are carried out with female Sprague-Dawley rats weighing 200-230 g. They were mated with proven fertile males. The presence of sperm in the vagina of these animals is evidence of mating and is also considered as being day one of pregnancy. Pregnancy is confirmed at the time of autopsy by the presence of fetuses or implantation sites in the uterus. Even when animals abort the fetuses, implantation scars remain as evidence that the animal had been pregnant.
[…] These animals were autopsied on day 16 of pregnancy and the uteri were examined for evidence of pregnancy and termination of pregnancy such as implantation sites, live or resorbing fetuses and hemorrage as well as abnormalities of the uterus, placenta or fetuses. A compound is considered to be active if there is a reduction of live fetuses in at least 60% of the treated animals and the presence of implantation sites proves the animals to have been pregnant.

[2] = system: female Syrian golden hamsters; test: anti-fertility activity in pregnant hamsters; assay type: in vivo, hamster (Syrian golden); conditions: Mesocricetus auratus, sc, 5 mg/kg s.c., day 4 through day 8, autopsy day 14 of pregnancy, read-out: treated animals in which the number of live fetuses was either eliminated or severely reduced
Protocol: The anti-fertility activity of these compounds in rats was also confirmed in other species including mice, hamsters, rabbits, dogs, monkeys and baboons. With hamsters, the same criteria and conditions are followed as for testing in rats, with the exception that the animals (female Syrian golden hamsters weighing 100 to 130 g) are treated on day 4 through day 8 with 5 mg/kg s.c. of the test compound and are autopsied on day 14 of pregnancy.

[3] = system: pain threshold of the rats; test: analgesic activity, Randall and Selitto procedure, pain threshold; assay type: in vivo, rat; conditions: 50 mg/kg i.p.
Protocol: The analgesic activity of representative compounds as hereinbefore described was assessed in rats by following essentially the procedure described by L. O. Randall and J. J. Selitto, Arch. Int. Pharmacodyn., 111, 409 (1957).

baboons = test: anti-fertility test in baboons; assay type: in vivo, baboon
conditioned rats = test: secondary conditioned avoidance response test (anti-anxiety); assay type: in vivo, rat
Protocol: The CNS depressant properties of compounds hereinbefore described were investigated according to the Irwin method and in particular the anti-anxiety effect was evaluated on the basis of the secondary conditioned avoidance response test. A specific anti-anxiety effect was evidenced by administering to conditioned rats doses of 15-60 mg/kg i.p. of representative said compounds of the invention.
Following Table II indicates the ratio of the rats which are deconditioned after administration of predetermined amounts of said representative compounds: […]

[4] = toxicity, LD50 i.p. in mice; conditions: mouse, in vivo, ip
[5] = system: Mycobacterium tubercolosis H37 Rv; test: minimal inhibitory concentration, bacterial growth; assay type: cell-based; conditions: H37RV, read-out: M.I.C. (minimal inhibitory concentration)
Protocol: In evaluating the antimicrobial utility of representative compounds as hereinbefore described, the minimal concentration of substance inhibiting bacterial growth (M.I.C.=minimal inhibitory concentration) was determined.

[6] = system: carrageenin induced edema; test: carrageenin induced edema of the rat hind paw (anti-inflammatory); assay type: in vivo; conditions: rats
Protocol: The anti-inflammatory activity of some representative compounds of formula I as hereinbefore described was evidenced by means of the carrageenin tests in rats. This test is carried out in the hind paw of the rat which paw has been inflammed by injection of carrageenin according to the technique described by C.A. Winter and coworker, Proc. Soc. Exptl. Biol. Med. III, 554 (1962). In following Table I are reported the percent inhibition of the carrageenin induced edema at the dose level indicated for each compound.

c1ccc2c(c1)Cn1nc(-c3ccc4c(c3)OCO4)nc1-2 [2-(3,4-Methylenedioxyphenyl)-5H-s-triazolo[5,1-a]isoindole]
% Animals Aborting ([1]; 1 mg/kg/day s.c.): 0%
% Animals Aborting ([1]; 1.25 mg/kg/day s.c.): 25%
% Animals Aborting ([1]; 2.5 mg/kg/day s.c.): 66.7%
% Animals Aborting ([1]; 5 mg/kg/day s.c.): 100%
responders at 5 mg/kg [2]: ≥ 60%

c1cncc(-c2nc3n(n2)Cc2ccccc2-3)c1 [2-(3-pyridyl)-5H-s-triazolo[5,1-aisoindole]
increase of the pain threshold of the rats [3]: 70%
toxic effect [3]: without provoking any toxic effect

c1ccc(COc2cccc(-c3nc4n(n3)Cc3ccccc3-4)c2)cc1 [2-(m-Benzyloxyphenyl)-5H-s-triazolo[5,1-a]isoindole]
responders at 5 mg/kg [2]: ≥ 60%

Clc1cccc(-c2nc3n(n2)Cc2ccccc2-3)c1 [2-(m-Chlorophenyl)-5H-s-triazolo[5,1-a]isoindole]
responders at 5 mg/kg [2]: ≥ 60%

CN(C)c1cccc(-c2nc3n(n2)Cc2ccccc2-3)c1 [2-(m-Dimethylaminophenyl)-5H-s-triazolo[5,1-a]isoindole]
responders at 5 mg/kg [2]: ≥ 60%

CCOc1cccc(-c2nc3n(n2)Cc2ccccc2-3)c1 [2-(m-Ethoxyphenyl)-5H-s-triazolo[5,1-a]isoindole]
% Animals Aborting ([1]; 1 mg/kg/day s.c.): 33.3%
% Animals Aborting ([1]; 1.25 mg/kg/day s.c.): 62.5%
% Animals Aborting ([1]; 2.5 mg/kg/day s.c.): 85.7%
% Animals Aborting ([1]; 5 mg/kg/day s.c.): 100%
responders at 5 mg/kg [2]: ≥ 60%

Fc1cccc(-c2nc3n(n2)Cc2ccccc2-3)c1 [2-(m-Fluorophenyl)-5H-s-triazolo[5,1-a]isoindole]
responders at 5 mg/kg [2]: ≥ 60%

Oc1cccc(-c2nc3n(n2)Cc2ccccc2-3)c1 [2-(m-Hydroxyphenyl)-5H-s-triazolo[5,1-a]isoindole]
responders at 5 mg/kg [2]: ≥ 60%

COc1cccc(-c2nc3n(n2)Cc2ccccc2-3)c1 [2-(m-Methoxyphenyl)-5H-s-triazolo[5,1-a]isoindole]
induced abortion (baboons): induced abortion in every animal studied
% Animals Aborting ([1]; 0.155 mg/kg/day s.c.): 0%
% Animals Aborting ([1]; 0.31 mg/kg/day s.c.): 0%
% Animals Aborting ([1]; 0.62 mg/kg/day s.c.): 38.5%
% Animals Aborting ([1]; 1.25 mg/kg/day s.c.): 70.8%
% Animals Aborting ([1]; 2.5 mg/kg/day s.c.): 100%
% Animals Aborting ([1]; 5 mg/kg/day s.c.): 100%
responders at 5 mg/kg [2]: ≥ 60%

CCCOc1cccc(-c2nc3n(n2)Cc2ccccc2-3)c1 [2-(m-Propoxyphenyl)-5H-s-triazolo[5,1-a]isoindole]
% Animals Aborting ([1]; 1 mg/kg/day s.c.): 20%
% Animals Aborting ([1]; 1.25 mg/kg/day s.c.): 60%
% Animals Aborting ([1]; 2.5 mg/kg/day s.c.): 77.8%
% Animals Aborting ([1]; 5 mg/kg/day s.c.): 100%
responders at 5 mg/kg [2]: ≥ 60%

Cc1cccc(-c2nc3n(n2)Cc2ccccc2-3)c1 [2-(m-Tolyl)-5H-s-triazolo[5,1-a]isoindole]
responders at 5 mg/kg [2]: ≥ 60%

FC(F)(F)c1cccc(-c2nc3n(n2)Cc2ccccc2-3)c1 [2-(m-Trifluoromethylphenyl)-5H-s-triazolo[5,1-a]isoindole]
responders at 5 mg/kg [2]: ≥ 60%

Clc1ccc(-c2nc3n(n2)Cc2ccccc2-3)cc1 [2-(p-Chlorophenyl)-5H-s-triazolo[5,1-a]isoindole]
responders at 5 mg/kg [2]: ≥ 60%

Fc1ccc(-c2nc3n(n2)Cc2ccccc2-3)cc1 [2-(p-Fluorophenyl)-5H-s-triazolo[5,1-a]isoindole]
responders at 5 mg/kg [2]: ≥ 60%

COc1ccc(-c2nc3n(n2)Cc2ccccc2-3)cc1 [2-(p-Methoxyphenyl)-5H-s-triazolo[5,1-a]isoindole]
responders at 5 mg/kg [2]: ≥ 60%

Cc1ccc(-c2nc3n(n2)Cc2ccccc2-3)cc1 [2-(p-Tolyl)-5H-s-triazolo[5,1-a]isoindole]
responders at 5 mg/kg [2]: ≥ 60%

Nc1nc2n(n1)Cc1ccccc1-2 [2-Amino-5H-s-triazolo[5,1-a]isoindole]
Deconditioned / treated (conditioned rats; 30 mg/kg i.p.): 8/10
LD50 [4]: 600 mg/kg

Cc1nc2n(n1)Cc1ccccc1-2 [2-Methyl-5H-s-triazolo[5,1-a]isoindole]
Deconditioned / treated (conditioned rats; 15 mg/kg i.p.): 6/10
Deconditioned / treated (conditioned rats; 30 mg/kg i.p.): 7/10
LD50 [4]: > 400 mg/kg

c1ccc(-c2nc3n(n2)Cc2ccccc2-3)cc1 [2-Phenyl-5H-s-triazolo[5,1-a]isoindole]
% Animals Aborting ([1]; 1.25 mg/kg/day s.c.): 20%
% Animals Aborting ([1]; 2.5 mg/kg/day s.c.): 80%
responders at 5 mg/kg [2]: ≥ 60%

CCOC(=O)NC(=S)Nc1nc2n(n1)Cc1ccccc1-2 [2-carbethoxythioureido-5H-s-triazolo[5,1-a]isoindole]
MIC [5]: 5 µg/mL (≈ 16.5 µM)

COc1cccc(-c2nc3n(n2)Cc2cc(OC)c(OC)cc2-3)c1 [7,8-Dimethoxy-2-(m-methoxyphenyl)-5H-s-triazolo[5,1-a]isoindole]
responders at 5 mg/kg [2]: ≥ 60%

COc1cccc(-c2nc3n(n2)Cc2cc(Cl)ccc2-3)c1 [7-Chloro-2-(m-methoxyphenyl)-5H-s-triazolo[5,1-a]isoindole]
responders at 5 mg/kg [2]: ≥ 60%

Clc1ccc2c(c1)Cn1nc(-c3ccccc3)nc1-2 [7-Chloro-2-phenyl-5H-s-triazolo[5,1-a]isoindole]
responders at 5 mg/kg [2]: ≥ 60%

COc1cccc(-c2nc3n(n2)Cc2cc(OC)ccc2-3)c1 [7-Methoxy-2-(m-methoxyphenyl)-5H-s-triazolo[5,1-a]isoindole]
responders at 5 mg/kg [2]: ≥ 60%

COc1cccc(-c2nc3n(n2)Cc2ccc(Cl)cc2-3)c1 [8-Chloro-2-(m-methoxyphenyl)-5H-s-triazolo[5,1-a]isoindole]
responders at 5 mg/kg [2]: ≥ 60%

Clc1ccc2c(c1)-c1nc(-c3ccccc3)nn1C2 [8-Chloro-2-phenyl-5H-s-triazolo[5,1-a]isoindole]
responders at 5 mg/kg [2]: ≥ 60%

COc1cccc(-c2nc3n(n2)Cc2ccc(OC)cc2-3)c1 [8-Methoxy-2-(m-methoxyphenyl)-5H-s-triazolo[5,1-a]isoindole]
% Animals Aborting ([1]; 2.5 mg/kg/day s.c.): 57.1%
% Animals Aborting ([1]; 5 mg/kg/day s.c.): 100%
responders at 5 mg/kg [2]: ≥ 60%

COc1ccc2c(c1)-c1nc(-c3ccccc3)nn1C2 [8-Methoxy-2-phenyl-5H-s-triazolo[5,1-a]isoindole]
responders at 5 mg/kg [2]: ≥ 60%

CCCCc1nc2n(n1)Cc1ccccc1-2 [a, 2-n-butyl-5H-s-triazolo[5,1-a]isoindole]
Per Cent Inhibition of the Edema ([6]; 100 mg/Kg p.o.): 28 Per Cent

CC(=O)Nc1nc2n(n1)Cc1ccccc1-2 [c, 2-acetamido-5H-s-triazolo[5,1-a]isoindole]
Per Cent Inhibition of the Edema ([6]; 50 mg/Kg p.o.): 35 Per Cent
Per Cent Inhibition of the Edema ([6]; 100 mg/Kg p.o.): 54 Per Cent

CC(=O)N(C(C)=O)c1nc2n(n1)Cc1ccccc1-2 [d, 2-diacetylamino-5H-s-triazolo[5,1-a]isoindole]
Per Cent Inhibition of the Edema ([6]; 50 mg/Kg p.o.): 34 Per Cent
Per Cent Inhibition of the Edema ([6]; 100 mg/Kg p.o.): 53 Per Cent

NC(=O)Nc1nc2n(n1)Cc1ccccc1-2 [e, 2-ureido-5H-s-triazolo[5,1-a]isoindole]
Per Cent Inhibition of the Edema ([6]; 100 mg/Kg p.o.): 29 Per Cent

O=C(Nc1nc2n(n1)Cc1ccccc1-2)c1ccccc1 [f, 2-benzoylamino-5H-s-triazolo[5,1-a]isoindole]
Per Cent Inhibition of the Edema ([6]; 100 mg/Kg p.o.): 28 Per Cent

Sc1nc2n(n1)Cc1ccccc1-2 [g, 2-sulfhydryl-5H-s-triazolo[5,1-a]isoindole]
Per Cent Inhibition of the Edema ([6]; 50 mg/Kg p.o.): 39 Per Cent
Per Cent Inhibition of the Edema ([6]; 100 mg/Kg p.o.): 49 Per Cent
